Results from US20220162240A1, “MITOCHONDRIA-TARGETED ISOKETAL/ISOLEVUGLANDIN SCAVENGERS” (Vanderbilt University, priority 2019, published 2022).
Entries after “also recorded” stand apart in the source; their conditions may differ.

Tests used:
[1] = Experimental: (§1) Free radical oxidation of arachidonic acid produces highly reactive isolevuglandins (isoLG) which causes mitochondrial dysfunction by opening of the mitochondrial permeability transition pore (mPTP). […] The functional role of mitochondrial isoLG was tested in vivo using angiotensin II model of hypertension. C57Bl/6J mice were infused with angiotensin II (0.7 mg/kg/day) or saline (Sham) and received mito2HOBA in the drinking water (0.1 g/L). […] Decrease of NO is a hallmark of endothelial dysfunction in hypertension due to vascular oxidative stress.
The above example is a water soluble compound which can be supplied to cells in the media and provided to animals in the drinking water.

[2] = system: human aortic endothelial cells (HAEC); test: Mitochondrial superoxide in HAEC incubated with Ang II plus TNFα (MitoSOX/HPLC); format: cell-based; settings: 50 nM, Ang II + TNFα 24 hours, MitoSOX/HPLC
Experimental: as §1
(§2) Mitochondrial O2^• and cardiolipin oxidation (specific marker of mitochondrial dysfunction and oxidative stress) in cultured human aortic endothelial cells (HAEC) were incubated with Ang II and TNFα.

CypD acetylation = test: Western blot of aorta mitochondria for GCN5L1, Sirt3, Ac-K and CypD acetylation in Ang II-infused mice; format: in vivo; settings: 0.1 g/L in drinking water; for CypD acetylation: CypD i.p. and anti-Acetyl-K WB
Experimental: (§3) (A) Blood pressure in C57Bl/6J mice infused with saline (Sham) or Ang II ([…]). Mito2HOBA was supplemented in drinking water (0.1 g/L). (B) Western blot of aorta mitochondria for isoLG adducts (D11 antibody), CypD, GCN5L1, Sirt3 and CypD acetylation (CypD i.p. and anti-Acetyl-K WB). Results are mean±SEM. *P<0.01 vs Sham, **P<0.01 vs Ang II (n=8).
(§4) Sham or Ang II-infused mice were supplemented with mito2HOBA in the drinking water (0.1 g/L) or plain water. […] Following 14 days of Ang II infusion, mice were sacrificed, aortas were isolated for Western blot studies. […] This causes an imbalance between mitochondrial acetylation and deacetylation pathways leading to hyperacetylation of mitochondrial proteins measured by Ac-K and CypD hyperacetylation.
Hypertension impairs mitochondrial function and mito2HOBA attenuates mitochondrial dysfunction, and accumulation of mitochondrial isoLG in hypertension promotes CypD acetylation and mPTP opening, impairs mitochondrial respiration and reduces ATP. Scavenging of mitochondrial isoLG with mito2HOBA prevents these deleterious effects. The inventors analyzed kidney tissue isolated from control mice (Sham), mice drinking mito2HOBA, mice infused with Ang II and Ang II-infused mice supplemented with mito2HOBA (mito2HOBA+Ang II).

[3] = system: human aortic endothelial cells (HAEC); test: Cardiolipin oxidation in HAEC incubated with Ang II plus TNFα (LC/MS); format: cell-based; settings: 50 nM, Ang II + TNFα 24 hours
Experimental: as §1, §2

[4] = system: isoLG-Lysyl-Lactam protein adducts; test: LC/MS/MS of isoLG-Lys-Lactam protein adducts in kidney mitochondria of Ang II-infused mice; format: in vivo; settings: 0.1 g/L in drinking water
Experimental: (A) Representative LC/MS/MS chromatograms; (B) isoLG-Lys-Lactam levels in mitochondria isolated from kidneys of mice drinking water (Sham), mito2HOBA (0.1 g/L), and infused with Ang II (0.7 mg/kg/day). Results are mean±SEM (n=3). *P<0.05 vs Ang II.

endothelial NO = test: Endothelial NO by ESR and Fe(DETC)2 in Ang II-infused mice; format: in vivo; settings: 0.1 g/L in drinking water, ESR
Experimental: (§5) (A) Aortic […] was measured by DHE probe and HPLC. (B) Endothelial NO was analyzed by ESR and Fe(DETC)2. C57Bl/6J mice were infused with Ang II ([…]) and mito2HOBA was provided in the drinking water (0.1 g/L).
(§6) The present inventors examined vascular oxidative stress by measurements of aortic ? using fluorescent ? probe DHE and HPLC, and analysis of endothelial NO using Electron Spin Resonance and specific NO spin trap Fe(DETC)2.
(§7) Among the other actions O2^• inactivates endothelial nitric oxide (NO), promotes vasoconstriction and vascular remodeling and ultimately increases systemic vascular resistance. Decreased NO bioavailability is therefore a hallmark of endothelial oxidative stress in hypertension due to NO oxidation, reduced NO production and eNOS uncoupling. We measured aortic O2^• using the fluorescent O2^• probe DHE and HPLC as we described previously. Endothelial NO was quantified by Electron Spin Resonance (ESR) and specific NO spin trap Fe(DETC)2.

aortic superoxide = test: Aortic superoxide by DHE probe and HPLC in Ang II-infused mice; format: in vivo; settings: 0.1 g/L in drinking water
Experimental: as §5, §6, §7

mice = test: Tolerability in mice receiving compound in drinking water; format: in vivo
[5] = system: human aortic endothelial cells (HAECs); test: Tolerability in cultured HAEC; format: cell-based
kidney mitochondria = settings: Ang II-infused mice, 0.1 g/L in drinking water
Experimental: C57Bl/6J mice were infused with Ang II ([…]) and mito2HOBA in the drinking water (0.1 g/L). Following 14 days of Ang II infusion the animals were sacrificed and kidneys were isolated for mitochondrial studies. […] Respiratory control ratio (State 3/State 4) was measured in isolated kidney mitochondria with glutamate and malate […]. Control level is 100%. (B) Kidney ATP was measured in freshly isolated tissue by luciferase-based luminescent assay. Results are mean±SEM. *P<0.01 vs Sham, **P<0.01 vs Ang II (n=3-8).
(A) Respiratory control ratio (State 3/State 4) was measured in isolated kidney mitochondria with glutamate and malate. Control level is 100%. (B) Kidney ATP level was measured in freshly isolated tissue by luciferase-based luminescent assay. C57Bl/6J mice were infused with Ang II ([…]) and mito2HOBA was provided in the drinking water (0.1 g/L). Following 14 days of Ang II infusion the animals were sacrificed and kidneys were isolated for mitochondrial and ATP studies. Results are mean±SEM. *P<0.01 vs Sham, **P<0.01 vs Ang II (n=3-8).
The inventors analyzed kidney tissue isolated from control mice (Sham), mice drinking mito2HOBA, mice infused with Ang II and Ang II-infused mice supplemented with mito2HOBA (mito2HOBA+Ang II).
To show this, the present inventors analyzed kidney tissue isolated from control mice (Sham), mice drinking mito2HOBA (mito2HOBA), mice infused with Ang II (Ang II) and Ang II-infused mice supplemented with mito2HOBA (mito2HOBA+Ang II).

[6] = system: mitochondrial isoLG protein adducts; test: Western blot of isoLG adducts (D11 antibody) in heart mitochondria of Ang II-infused mice; format: in vivo; settings: 0.1 g/L in drinking water, 14 days
Experimental: Mito2HOBA was supplemented in drinking water (0.1 g/L). […] Results are mean±SEM. *P<0.01 vs Sham, **P<0.01 vs Ang II (n=8).
as §1

[7] = system: Ang II-infused C57Bl/6J mice; test: Blood pressure in angiotensin II-induced hypertension, mito2HOBA in drinking water; format: in vivo; settings: Ang II 0.7 mg/kg/day, compound 0.1 g/L in drinking water
Experimental: as §3
(A) Blood pressure in C57Bl/6J wild type mice infused with either saline (Sham) or Ang II ([…]). Mito2HOBA was supplemented in drinking water (0.1 g/L). (B) Mitochondrial isoLG were measured by Western blot in the heart mitochondria using D11 antibody as we have previously described. Results are mean±SEM. *P<0.01 vs Sham, **P<0.01 vs Ang II (n=8).
as §4
The present inventors implanted an osmotic minipump with Ang II (0.7 mg/kg/day) or saline (Sham) in C57Bl/6J mice receiving mito2HOBA in the drinking water (0.1 g/L) or plain water. […]

[8] = system: mitochondrial isoLG protein adducts; test: Western blot of isoLG adducts and CypD-isoLG (D11 antibody) in aorta mitochondria of Ang II-infused mice; format: in vivo
Experimental: as §3
FIG. 18 is a western blot analysis of isoLG protein adducts in mitochondria isolated from aorta dissected from C57Bl/6J mice infused with Ang II and treated with mito2HOBA (A). CypD-isoLG modification was determined by CypD immunoprecipitation and Western blot with anti-isoLG D11 antibody (B).
as §4
The potential CypD-isoLG adduct formation was determined by CypD immunoprecipitation and Western blot with anti-isoLG D11 antibody.

mitochondrial matrix = settings: TPP conjugate, given as example; cited from earlier work

## 4-(aminomethyl)-3-hydroxyphenoxy) butyl)triphenylphosphonium [mito2HOBA]
[1]
  water solubility: water soluble
[2]
  mitochondrial superoxide production / mitochondrial oxidative stress: inhibited; also recorded: diminished mitochondrial oxidative stress; also recorded: inhibition of mitochondrial oxidative stress
CypD acetylation
  balance between GCN5L1 and Sirt3 in aorta mitochondria: corrects the imbalance between GCN5L1 and Sirt3
  mitochondrial Ac-K (acetylation of mitochondrial proteins): reduces mitochondrial Ac-K
  CypD acetylation: reduced CypD acetylation
CypD acetylation; listed as Mito2HOBA
  CypD acetylation: prevents CypD hyperacetylation
[3]
  cardiolipin oxidation: prevented cardiolipin oxidation
[3]; listed as Mito2HOBA
  cardiolipin oxidation: more effective in prevention of cardiolipin oxidation than 2HOBA
[4]
  isoLG-Lysyl-Lactam protein adducts in kidney mitochondria: abolished isoLG-Lysyl-Lactam adducts formation
Endothelial NO
  endothelial NO: preserved endothelial NO; also recorded: preserves NO bioavailability
Aortic superoxide
  vascular (aortic) superoxide: reduced; also recorded: reduces vascular O2^•
mice
  tolerability by mice receiving it in drinking water: well tolerated
mice; preliminary in vivo experiments
  dose in drinking water well tolerated: 0.1 to 0.3 g/L
[5]
  tolerability by cultured HAECs: well tolerated
[5]; preliminary in vitro experiments
  concentration well tolerated by cultured HAECs: up to 200 nM
Kidney mitochondria; 14 days
  mPTP opening (Ca2+ retention capacity) in kidney mitochondria: attenuates mPTP opening; also recorded: reduces mPTP opening
Kidney mitochondria; kidney mitochondria with glutamate and malate
  mitochondrial respiration (respiratory control ratio State 3/State 4): protects mitochondrial respiration
Kidney mitochondria; luciferase-based luminescent assay
  kidney ATP: preserves normal ATP production
[6]
  isoLG adducts in heart mitochondria: reduced accumulation of isoLG adducts
[7]
  Ang II-induced hypertension (blood pressure): significantly attenuates
[7]; listed as Mito2HOBA
  Ang II-induced hypertension (blood pressure): significantly attenuated
[8]; Ang II-infused mice, 0.1 g/L in drinking water, 14 days, D11 antibody
  isoLG adducts in aorta mitochondria: prevents accumulation of isoLG adducts; also recorded: attenuated accumulation of mitochondrial isoLG
[8]; CypD immunoprecipitation and Western blot with D11 antibody
  protein isoLG adducts and CypD-isoLG in aortic mitochondria: diminished

## CC1(C)CC(NC(=O)C[P+](c2ccccc2)(c2ccccc2)c2ccccc2)CC(C)(C)N1[O] [mitoTEMPO]
Mitochondrial matrix
  concentration within the mitochondrial matrix: more than a five hundred-fold
